Source: US8518989B2, “Prodrugs of short-chain fatty acids and treatment methods” (Georgia Health Sciences University Research Institute, Inc., priority 2005, dated 2013)

What was measured:
rat ATB^0,+ = target: T1, rat ATB^0,+ (Rattus norvegicus, UniProt Q334I2); assay: Inhibition of ATB0,+-mediated 3H-glycine uptake in HRPE cells expressing cloned rat ATB0,+; format: cell-based; conditions: 5 mM; HRPE cells
T1 sequence (Q334I2 1-640): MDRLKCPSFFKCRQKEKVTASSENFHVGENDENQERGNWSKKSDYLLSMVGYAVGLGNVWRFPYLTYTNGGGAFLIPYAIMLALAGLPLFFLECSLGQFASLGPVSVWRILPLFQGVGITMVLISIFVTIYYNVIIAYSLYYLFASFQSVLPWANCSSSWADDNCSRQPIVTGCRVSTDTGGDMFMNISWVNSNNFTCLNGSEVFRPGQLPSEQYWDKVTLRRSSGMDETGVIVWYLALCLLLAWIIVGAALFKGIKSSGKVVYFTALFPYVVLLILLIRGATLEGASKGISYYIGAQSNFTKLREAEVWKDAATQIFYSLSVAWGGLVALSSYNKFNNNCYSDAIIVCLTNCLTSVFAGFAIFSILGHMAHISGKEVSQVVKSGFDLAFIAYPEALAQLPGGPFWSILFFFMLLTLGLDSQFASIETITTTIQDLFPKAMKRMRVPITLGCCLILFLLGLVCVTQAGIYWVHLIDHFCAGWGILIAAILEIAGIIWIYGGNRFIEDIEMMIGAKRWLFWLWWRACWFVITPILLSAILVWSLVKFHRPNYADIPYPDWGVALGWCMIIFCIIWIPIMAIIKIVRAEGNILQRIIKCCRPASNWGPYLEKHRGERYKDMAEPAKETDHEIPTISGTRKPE

[1] = system: MCF7 cells transfected with SMCT1 cDNA; assay: Colony formation assay in MCF7 cells transfected with SMCT1 cDNA; format: cell-based, human; conditions: SMCT1-expressing MCF7 cells
human SLC5A8 = target: T2, human SLC5A8 (Homo sapiens, UniProt Q8N695, F251V/V193I); assay: Two-microelectrode voltage clamp of substrate-induced currents in SLC5A8-expressing oocytes; format: cell-based
T2 construct: We amplified the coding region of SLC5A8 mRNA by RT-PCR using human intestinal mRNA as the template; expressed in transfected cells; host or cells: Xenopus laevis oocytes, 50 ng capped cRNA from the pGH19 construct
T2 sequence (Q8N695 1-610 V193I/F251V): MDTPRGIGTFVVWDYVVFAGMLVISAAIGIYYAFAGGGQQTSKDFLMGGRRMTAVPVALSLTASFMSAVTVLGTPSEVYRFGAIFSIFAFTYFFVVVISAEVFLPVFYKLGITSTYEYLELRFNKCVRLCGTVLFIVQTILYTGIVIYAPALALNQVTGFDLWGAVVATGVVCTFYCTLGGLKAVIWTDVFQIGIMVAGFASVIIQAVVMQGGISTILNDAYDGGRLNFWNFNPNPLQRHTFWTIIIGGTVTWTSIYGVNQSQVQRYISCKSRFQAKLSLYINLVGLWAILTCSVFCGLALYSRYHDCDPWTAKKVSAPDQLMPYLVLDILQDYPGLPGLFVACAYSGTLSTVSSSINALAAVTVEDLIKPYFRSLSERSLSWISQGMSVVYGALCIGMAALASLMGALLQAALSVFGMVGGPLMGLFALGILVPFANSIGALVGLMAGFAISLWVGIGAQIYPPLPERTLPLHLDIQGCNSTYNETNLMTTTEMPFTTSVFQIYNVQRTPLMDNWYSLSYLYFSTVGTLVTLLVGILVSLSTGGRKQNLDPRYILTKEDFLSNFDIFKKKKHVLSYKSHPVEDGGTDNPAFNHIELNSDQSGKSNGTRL
Description: The amplified human SLC5A8 cDNA was expressed heterologously in Xenopus oocytes by cRNA injection. Capped cRNA from SLC5A8 cDNA was synthesized using the mMESSAGE mMACHINE kit (Ambion Inc., Austin, Tex.). Mature oocytes (stage 1V or V) from Xenopus laevis were injected with 50 ng cRNA. Uninjected oocytes served as controls. The oocytes were used for uptake and electrophysiological studies 3-6 days after cRNA injection. Uptake of radiolabeled substrates in uninjected and cRNA-injected oocytes was determined as described previously (Fei, Y. J., et al., (1995) Biochemistry 34, 8744-8751).
Eight oocytes were used for each uptake measurement. Electrophysiological studies were performed by the two-microelectrode voltage clamp method (11. Wang, H., Fei, et al., (2000) Am. J. Physiol. 278:C1019-C1030; Inoue, K, et al. (2004) Biochem. J. 378:949-957).
Oocytes were perfused with a NaCl-containing buffer (100 mM NaCl, 2 mM KCl, 1 mM MgCl2, 1 mM CaCl2, 3 mM Hepes, 3 mM Mes, and 3 mM Tris, pH 7.5), followed by the same buffer containing different fatty acids. The membrane potential was clamped at −50 mV. The differences between the steady-state currents measured in the presence and absence of substrates were considered as the substrate-induced currents. To investigate the current-membrane potential (I—V) relationship, step changes in membrane potential were applied, each for a duration of 100 ms in 20-mV increments. The kinetic parameter K0.5 (i.e. the substrate concentration necessary for the induction of half-maxima) current) was calculated by fitting the values of the substrate-induced currents to Michaelis-Menten equation. The Na^+-activation kinetics was analyzed by measuring the substrate-specific currents in the presence of increasing concentrations of Na^+. The data were analyzed by the Hill equation to determine the Hill coefficient (h; the number of Na^+ ions involved in the activation process). The kinetic parameters were determined using the computer program Sigma Plot, version 6.0 (SPSS, Inc., Chicago, Ill.). Electrophysiological measurements of substrate-induced currents were repeated at least four times with separate oocytes. The data are presented as means±S.E. of these replicates.
The charge-to substrate transfer ratio was determined for propionate in four different oocytes as described previously (Wang, H., et al. (2000) Am. J. Physiol. 278:C1019-C1030 12. Inoue, K., Fei, Y. J., Zhuang, L., Gopal, E., Miyauchi, S., and Ganapathy, V. (2004) Biochem. J. 378:949-957). The oocytes were perfused with 25 μM propionate (unlabeled plus radiolabeled propionate), and inward currents were monitored over a period of 8-10 min. At the end of the experiment, the amount of propionate transported into the oocytes was calculated by measuring the radioactivity associated with the oocytes. The area within the curve describing the relationship between the time and inward current was integrated to calculate the charge transferred into the oocyte during incubation with propionate. The values for substrate transfer and charge transfer were used to determine the charge to substrate transfer ratio.

## CC(=O)O [acetate]
Rat ATB^0,+
  Inhibition of ATB0,+-mediated glycine transport (in words): did not inhibit glycine transport
[1]
  Effect on cell growth / apoptosis: no effect on cell growth
Human SLC5A8; 5 mM, -50 mV
  Relative magnitude of substrate-induced currents: intermediate
Human SLC5A8; four oocytes
  K0.5 for SLC5A8: 2.46 ± 0.89 mM
